Experimental data as given in patent US4733003A, “Octahydronaphthalene derivatives and their preparation” (Sankyo Company Limited, priority 1981, dated 1988).

Tested on: cholesterol biosynthesis
Test: inhibition of cholesterol biosynthesis (method of J. Biol. Chem. 234, 2835 (1959))
Assay type: biochemical
Conditions: method of Journal of Biological Chemistry, 234, 2835 (1959)
Excerpt: The compounds of the invention in which R^1 and R^2 both represent oxygen atoms are, as already described, valuable intermediates for the synthesis of the active compounds. The inhibitory activities of certain of the compounds of the invention, in terms of the concentration in ng/ml required to inhibit colesterol biosynthesis by 50% [measured by the method described in the Journal of Biological Chemistry, 234, 2835 (1959)], are as follows (for comparison, the value for ML-236B lactone is also given): […]

| SMILES | concentration required to inhibit colesterol biosynthesis by 50% [ng/mL] |
| --- | --- |
| CCC(C)C(=O)OC1CCC(=NO)C2=CC(=NO)C(C)C(CCC3CC(O)CC(=O)O3)C21 (single isomer, unassigned) [isomer a (Example 3), 3,4-Dihydro-4,6-bis(hydroxyimino)IsoML-236B lactone] | 4.5 |
| CCC(C)C(=O)OC1CCC(=NO)C2=CC(=O)C(C)C(CCC3CC(O)CC(=O)O3)C21 (centres unmarked) [3,4-Dihydro-6-oxo-4-hydroxyiminoIsoML-236B lactone] | 0.3 |
| CCC(C)C(=O)OC1CCC(=NO)C2=CC(=O)C(C)C(CCC(O)CC(O)CC(=O)O)C21 (centres unmarked) [disodium 3,4-dihydro-6-oxo-4-oxidoiminoIsoML-236B carboxylat] [Disodium 3,4-dihydro-6-oxo-4-oxidoiminoIsoML-236B carboxylate] | 0.4 |
| CCC(C)C(=O)OC1CCC(=NO)C2=CC(=O)C(C)C(CCC(O)CC(O)CC(=O)O)C21 (centres unmarked) [sodium 3,4-dihydro-6-oxo-4-hydroxyiminoIsoML-236B carboxylat] [Sodium 3,4-dihydro-6-oxo-4-hydroxyiminoIsoML-236B carboxylate] | 0.3 |
| CC1C(=O)C=C2C(=NO)CCC(O)C2C1CCC1CC(O)CC(=O)O1 (centres unmarked) [3,4-Dihydro-6-oxo-4-hydroxyiminoIsoML-236A lactone] | 0.9 |
| CCC(C)C(=O)OC1CCC(=NOC)C2=CC(=O)C(C)C(CCC3CC(O)CC(=O)O3)C21 (centres unmarked) [3,4-Dihydro-6-oxo-4-methoxyiminoIsoML-236B lactone] | 0.6 |
| CCC(C)C(=O)OC1CCC=C2C=CC(C)C(CCC3CC(O)CC(=O)O3)C21 (centres unmarked) [ML-236B lactone, reference compound] | 10 |
| CCC(C)C(=O)OC1CCC(=NO)C2=CC(=NO)C(C)C(CCC3CC(O)CC(=O)O3)C21 (single isomer, unassigned) [isomer b (Example 3), 3,4-Dihydro-4,6-bis(hydroxyimino)IsoML-236B lactone] | 4.3 |
